In patent US7939535B2, “Benzo[D]isoxazol-3-yl-piperazin derivatives useful as modulators of dopamine D3 receptors” (Hoffman-La Roche Inc., priority 2008, dated 2011):

Molecular target: T1, human D3 dopamine receptor (Homo sapiens, UniProt P35462)
T1 construct: expressed in transfected cells; host or cells: HEK-293 EBNA cells, transient transfection; membrane homogenate
Test: radioligand binding ([3H]-spiperone) to human D3 receptor membranes
Details: [3H]-spiperone displacement, membranes of HEK-293 EBNA cells transiently expressing human D3
Experimental: The ability of the compounds to bind to the D3 receptors was determined using radioligand binding to cloned receptors selectively expressed in HEK-293 EBNA cells.
HEK-293 EBNA cells were transiently transfected with expression plasmids encoding for the human D3 dopamine receptor. The cells were harvested 48 h post-transfection, washed three times with cold PBS and stored at −80° C. prior to use. The pellet was suspended in cold 50 mM Tris-HCl buffer containing 10 mM EDTA (pH 7.4) and homogenized with a Polytron (Kinematica AG, Basel, Switzerland) for 20-30 sec at 12.000 rpm. After centrifugation at 48.000×g for 30 mM at 4° C., the pellet was resuspended in cold 10 mM Tris-HCl buffer containing 0.1 mM EDTA (pH 7.4), homogenized, and centrifuged as above. This pellet was further resuspended in a smaller volume of ice cold 10 mM Tris-HCl buffer containing 0.1 mM EDTA (pH 7.4) and homogenized with a Polytron for 20-30 sec at 12.000 rpm. The protein content of this homogenate was determined with the Bio-Rad (radford) Protein Assay (Biorad Laboratories GmbH, München, Germany) according to the instructions of the manufacturer using gamma globulin as the standard. This homogenate was stored at −80° C. in aliquots and thawed immediately prior to use.
Aliquots of membrane preparations were thawed at RT, resuspended in assay buffer (50 mM Tris-HCl, 120 mM NaCl, 5 mM MgCl2, 1 mM E TA, 5 mM KCl, 1.5 mM CaCl2, pH=7.4), homogenized with a Polytron for 20-30 sec at 12.000 rpm and adjusted to a final concentration of approximately 7.5 μg protein/well.
The binding affinity (Ki) of the compounds was determined using radioligand binding. Membranes were incubated in a total volume of 200 with a fixed concentration of radioligand (final concentration approximately 0.5 nM [^3H]-spiperone) and ten concentrations of test compound in ranging between 10 μM-0.1 nM for 1 at RT. At the end of the incubation, the reaction mixtures were filtered on to unifilter 96-well white microplates with bonded GF/C filters (Packard BioScience, Zürich, Switzerland; preincubated for 1 h in 0.1% polyethylenimine (PEI) in assay buffer) with a Filtermate 196 harvester (Pack rd BioScience) and washed 3 times with cold assay buffer. The nonspecific binding was determined with equally composed reaction mixtures in the presence of 10 μM unlabelled spiperone. Per well 45 μl of Microscint 40 (Perkin Elmer, Schwerzenbach, Switzerland) was added, plate, for sealed, shaken for 20 mM and counted for 3 mM on a Topcount Microplate Scintillation Counter (Canberra Packard SA, Zürich, Switzerland) with quenching correction.
The CPM value for each duplicate of a concentration of competing compound was averaged (y1), then the % specific binding was calculated according to the equation (((y1−non-specific)/(total binding-non-specific))×100). Graphs were plotted with the % specific binding using XLfit, a curve fitting program that iteratively plots the data using Levenburg Marquardt algorithm. The single site competition analysis equation used was y=A+((B−A)/(1+((x/C)^D))), where y is the % specific binding, A is the minimum y, B is the maximum y, C is the IC50, x is the log10 of the concentration of the competing compound and D is the slope of the curve (the Hill Coefficient). From these curves the IC50 (inhibition concentration at which 50% specific binding of the radioligand was displaced) and Hill coefficient were determined. The affinity constant (Ki) was calculated using the Cheng-Prusoff equation Ki=(IC50/1+([L]/Kd), where [L] is the concentration of radioligand and Kd is the dissociation constant of the radioligand at the receptor as determined by the saturation isotherm.

T1 sequence (P35462 whole entry): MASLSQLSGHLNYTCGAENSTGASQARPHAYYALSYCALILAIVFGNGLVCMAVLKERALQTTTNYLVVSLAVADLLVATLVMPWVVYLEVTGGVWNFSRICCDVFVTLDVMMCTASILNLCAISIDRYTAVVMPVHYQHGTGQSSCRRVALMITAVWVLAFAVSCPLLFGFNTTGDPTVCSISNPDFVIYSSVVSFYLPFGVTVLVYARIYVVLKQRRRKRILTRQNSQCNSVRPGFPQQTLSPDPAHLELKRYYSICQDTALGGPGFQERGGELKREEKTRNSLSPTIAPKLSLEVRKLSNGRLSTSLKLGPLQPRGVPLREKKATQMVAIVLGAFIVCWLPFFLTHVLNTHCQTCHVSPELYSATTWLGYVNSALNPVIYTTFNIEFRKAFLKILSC

Row | SMILES | Ki [nM]
1 | O=C(CO)N[C@H]1CC[C@H](CCN2CCN(c3noc4c(F)cc(F)cc34)CC2)CC1 [Example 2, N-(trans-4-{2-[4-(5,7-Difluoro-benzo[d]isoxazol-3-yl)-piperazin-1-yl]-ethyl}-cyclohexyl)-2-hydroxy-acetamide] | 3.88
2 | CO[C@H]1CC[C@H](CC(=O)N[C@H]2CC[C@H](CCN3CCN(c4noc5c(F)cc(F)cc45)CC3)CC2)CC1 [Example 5, N-(trans-4-{2-[4-(5,7-Difluoro-benzo[d]isoxazol-3-yl)-piperazin-1-yl]-ethyl}-cyclohexyl)-2-(trans-4-methoxy-cyclohexyl)-acetamide] | 11.8
3 | COCCC(=O)N[C@H]1CC[C@H](CCN2CCN(c3noc4c(F)cc(F)cc34)CC2)CC1 [Example 4, N-(trans-4-{2-[4-(5,7-Difluoro-benzo[d]isoxazol-3-yl)-piperazin-1-yl]-ethyl}-cyclohexyl)-3-methoxy-propionamide] | 3.66
4 | NC(=O)CC(=O)N[C@H]1CC[C@H](CCN2CCN(c3noc4c(F)cc(F)cc34)CC2)CC1 [Example 9, N-(trans-4-{2-[4-(5,7-Difluoro-benzo[d]isoxazol-3-yl)-piperazin-1-yl]-ethyl}-cyclohexyl)-malonamide] | 5.94
5 | CCC(=O)N[C@H]1CC[C@H](CCN2CCN(c3noc4c(F)cc(F)cc34)CC2)CC1 [Example 6, N-(trans-4-{2-[4-(5,7-Difluoro-benzo[d]isoxazol-3-yl)-piperazin-1-yl]-ethyl}-cyclohexyl)-propionamide] | 4.53
6 | CC(=O)N[C@H]1CC[C@H](CCN2CCN(c3noc4c(F)cc(F)cc34)CC2)CC1 [Example 1, N-(trans-4-{2-[4-(5,7-Difluoro-benzo[d]isoxazol-3-yl)-piperazin-1-yl]-ethyl}-cyclohexyl)-acetamide] | 3.7
7 | COCC(=O)N[C@H]1CC[C@H](CCN2CCN(c3noc4c(F)cc(F)cc34)CC2)CC1 [Example 3, N-(trans-4-{2-[4-(5,7-Difluoro-benzo[d]isoxazol-3-yl)-piperazin-1-yl]-ethyl}-cyclohexyl)-2-methoxy-acetamide] | 15.6
8 | O=C(CC1CC1)N[C@H]1CC[C@H](CCN2CCN(c3noc4c(F)cc(F)cc34)CC2)CC1 [Example 7, 2-Cyclopropyl-N-(trans-4-{2-[4-(5,7-difluoro-benzo[d]isoxazol-3-yl)-piperazin-1-yl]-ethyl}-cyclohexyl)-acetamide] | 2.72
9 | CC(=O)N[C@H]1CC[C@H](CCN2CCN(c3noc4ccc(F)c(F)c34)CC2)CC1 [Example 10, N-(trans-4-{2-[4-(4,5-Difluoro-benzo[d]isoxazol-3-yl)-piperazin-1-yl]-ethyl}-cyclohexyl)-acetamide] | 8.57
10 | COCCC(=O)N[C@H]1CC[C@H](CCN2CCN(c3noc4ccc(F)c(F)c34)CC2)CC1 [Example 11, N-(trans-4-{2-[4-(4,5-Difluoro-benzo[d]isoxazol-3-yl)-piperazin-1-yl]-ethyl}-cyclohexyl)-3-methoxy-propionamide] | 9.71
11 | O=C(N[C@H]1CC[C@H](CCN2CCN(c3noc4c(F)cc(F)cc34)CC2)CC1)C1CCOCC1 [Example 8, Tetrahydro-pyran-4-carboxylic acid (trans-4-{2-[4-(5,7-difluoro-benzo[d]isoxazol-3-yl)-piperazin-1-yl]-ethyl}-cyclohexyl)-amide] | 9.81
